From article PMC6928678, “Simplified Head-to-Tail Cyclic Polypeptides as Biomaterial-Associated Antimicrobials with Endotoxin Neutralizing and Anti-Inflammatory Capabilities” (International Journal of Molecular Sciences, 2019) come the findings set out here.

In brackets after ≈: the same amount, converted by molar mass. Where a SMILES comes first, the peptide text is derived from it. Where no end group is shown, it is not given here. [ ]: non-standard residue; d: D form.

Data set [1] has as its system gram-positive strains tested. As to the kind of experiment: organism not typed. The settings on record: 20 h. In kind it is cell-based. The procedure:
(§1) Briefly, the bacteria were incubated overnight at 37 °C with constant shaking at 220 rpm, then were transferred to new MH broth (MHB) medium until they reached the logarithmic phase of growth. The bacteria were then diluted to 10^5 (CFU)/mL in MHB. The peptides were dissolved and diluted in 0.01% acetic acid and 0.2% bovine serum albumin (BSA) at various concentrations (0.5–128 μM) in each well of sterile 96-well plates and incubated for 20 h at 37 °C. […] The test was repeated three times.

The subject of another data set is E. coli UB 1005. As to the kind of experiment: microbe, parasite or virus in culture. Format: cell-based, Escherichia coli. The conditions noted are these: UB 1005, 20 h. As for the experimental part:
(§2) The test strains, including Gram-negative E. coli ATCC25922, E. coli ATCC 1005, S. typhimurium C7731, P. aeruginosa ATCC 27853, S. Typhimurium 14028, Gram-positive S. aureus ATCC29213, S. aureus ATCC 25923, S. epidermidis ATCC 12228 and S. aureus 43300, were obtained from the School of Veterinary Medicine, Northeast Agricultural University (Harbin, China).
as §1

The subject of the next data set is E. coli 25922. As to the kind of experiment: microbe, parasite or virus in culture. In kind it is cell-based, Escherichia coli. The conditions noted are these: 25922, 20 h. As for the experimental part: as §2, §1
The next data set concerns S. aureus 29213. As to the kind of experiment: microbe, parasite or virus in culture. Format: cell-based, Staphylococcus aureus. The conditions noted are these: 29213, 20 h. The procedure:
as §2, §1

The test system of the next data set is S. aureus 25923. As to the kind of experiment: microbe, parasite or virus in culture. Format: cell-based, Staphylococcus aureus. The conditions noted are these: 25923, 20 h. The procedure: as §2, §1
A further data set has as its system MRSA43300. As to the kind of experiment: microbe, parasite or virus in culture. In kind it is cell-based, Methicillin-resistant Staphylococcus aureus. The settings on record: 20 h. The procedure:
as §2, §1

Another data set deals with P. aeruginosa 27853. As to the kind of experiment: microbe, parasite or virus in culture. In kind it is cell-based. The settings on record: 27853, 20 h; read-out: MIC. The procedure: as §2, §1
The subject of a further data set is S. typhimurium 14028. As to the kind of experiment: microbe, parasite or virus in culture. The conditions noted are these: 14028, 20 h. In kind it is cell-based. The procedure: as §2, §1
In a further data set the test system is S. typhimurium 7731. As to the kind of experiment: microbe, parasite or virus in culture. Format: cell-based. The settings on record: 7731, 20 h. As for the experimental part: as §2, §1
A further data set relates to S. epidermidis 12228. As to the kind of experiment: microbe, parasite or virus in culture. Format: cell-based. The conditions noted are these: 12228, 20 h. The procedure: as §2, §1
For data set [2], the system named is human red blood cells (hRBCs). As to the kind of experiment: Hemolysis assay. Format: cell-based. The conditions noted are these: red cells of human, 1 h. As for the experimental part:
Figure 2 (A) Hemolytic activity of the engineered peptides against human red blood cells (hRBCs). The hRBCs were incubated with equal amounts of the respective peptides dissolved in PBS for 1 h at 37 °C. (B) Cytotoxicity of the engineered peptides against RAW264.7. […] Data shown are three independent experiments.
The hemolytic activity of the peptides is determined by measuring the amount of hemoglobin released during the lysis of human erythrocytes at different concentrations of AMPs. Briefly, fresh, healthy human red blood cells (hRBCs) were collected and then washed three times with phosphate-buffered saline (PBS) buffer (pH 7.2) and centrifuged at 1000× g for 5 min. Each 50 µL sample of hRBCs was incubated with 50 µL of the respective peptide dissolved in PBS in a well of a 96-well plate for 1 h at 37 °C. After incubation, the samples were centrifuged at 1000× g for 5 min and the supernatants (50 μL) were transferred to a new 96-well microplate. The release of hemoglobin was measured by monitoring the OD at 570 nm (Tecan, Salzburg, Austria). Negative (hRBCs without AMP treatment) and positive (hRBCs treated with 0.1% TritonX-100) controls were used. The concentration of peptide that caused 5% hemolysis was considered the minimal hemolysis concentration (MHC). The test was repeated three times. The percent hemolysis was calculated using the following formula:(2) Percent hemolysis=A−A0/At−A0× 100% A0 and At represent 0% and 100% hemolysis as measured in 10 mM PBS and 0.2% Triton X-100, respectively.

The test system of data set [3] is gram-negative strains tested. As to the kind of experiment: Geometric mean of MICs, gram-negative strains. In kind it is cell-based. The settings on record: 5 gram-negative strains; >128 apparently counted as 256; read-out: nGM (–), geometric mean of the MICs against gram-negative strains. As for the experimental part:
as §1

In data set [4] the test system is all the 9 bacteria tested. As to the kind of experiment: Geometric mean of MICs, all 9 bacteria. In kind it is cell-based. The settings on record: all 9 bacteria tested. As for the experimental part: as §1
For data set [5], the system named is Gram-positive and Gram-negative bacteria. As to the kind of experiment: Antimicrobial assay (MIC), statement over all strains. The settings on record: all strains tested. Format: cell-based. The procedure: as §1

Take `CC[C@H](C)[C@H](N)C(=O)N[C@@H](CCCNC(=N)N)C(=O)N[C@H](C(=O)N[C@@H](CCCNC(=N)N)C(=O)N[C@H](C(=O)N[C@@H](CCCNC(=N)N)C(=O)N1CCC[C@@H]1C(=O)N[C@H](C(=O)N[C@@H](CCCNC(=N)N)C(=O)N[C@H](C(=O)N[C@@H](CCCNC(=N)N)C(=O)N[C@H](C(=O)N[C@@H](CCCNC(=N)N)C(=O)N1CCC[C@@H]1C(=O)O)[C@@H](C)CC)[C@@H](C)CC)[C@@H](C)CC)[C@@H](C)CC)[C@@H](C)CC` [DIR3] (H-IRIRIR[dP]IRIRIR[dP]-OH): in data set [1], the “pGM (+), geometric mean of the MICs against gram-positive strains” value (shortened to “pGM (+), geometric mean of the MICs”) is 45.3 µM. In addition, the MIC was found to be 4 µM (≈ 7.31 µg/mL) against E. coli UB 1005; 4 µM (≈ 7.31 µg/mL) against E. coli 25922; 8 µM (≈ 14.6 µg/mL) against S. aureus 29213; 64 µM (≈ 117 µg/mL) in the data set with S. aureus 25923; 64 µM (≈ 117 µg/mL) with MRSA43300; 8 µM (≈ 14.6 µg/mL) with P. aeruginosa 27853. Besides, the MIC is listed as 16 µM (≈ 29.3 µg/mL) with S. typhimurium 14028, 4 µM (≈ 7.31 µg/mL) in the data set with S. typhimurium 7731 and 128 µM (≈ 234 µg/mL) in the data set on S. epidermidis 12228. The “MHC5, minimum hemolytic concentration that induced ≥5% hemolysis” value in [2] is reported as greater than 128 µM.

On to IRPIRP [IR1], for which the “pGM (+), geometric mean of the MICs” value in data set [1] worked out at 256 µM. Also, the MIC in [3] was 256 µM; with E. coli UB 1005, greater than 128 µM; against E. coli 25922 it was greater than 128 µM; with S. aureus 29213, greater than 128 µM; in the data set with S. aureus 25923, greater than 128 µM; with MRSA43300 it was greater than 128 µM. Also, the MIC in the data set with P. aeruginosa 27853, against S. typhimurium 14028, against S. typhimurium 7731 and against S. epidermidis 12228 was greater than 128 µM each time. In addition, in data set [4], the “tGM, geometric mean of the MICs against all the 9 bacteria” value was 256 µM. The “MIC in the presence of Gram-positive and Gram-negative bacteria” value in [5] was “greater than 128 μM”. Further, the “MHC5, minimum hemolytic concentration that induced ≥5% hemolysis” value in data set [2] is greater than 128 µM.

IRIRPIRIRP [IR2]: the “pGM (+), geometric mean of the MICs” value in data set [1] is recorded as 256 µM. In addition, the MIC in [3] is 256 µM; in the data set with E. coli UB 1005 it was greater than 128 µM; in the data set with E. coli 25922, greater than 128 µM; in the data set on S. aureus 29213, greater than 128 µM; against S. aureus 25923, greater than 128 µM; with MRSA43300, greater than 128 µM. For the same compound, the MIC in the data set on P. aeruginosa 27853, against S. typhimurium 14028, against S. typhimurium 7731 and against S. epidermidis 12228 was greater than 128 µM each time. For the same compound, in [4], the “tGM, geometric mean of the MICs against all the 9 bacteria” value is listed as 256 µM. Besides, in data set [2], the “MHC5, minimum hemolytic concentration that induced ≥5% hemolysis” value is on record as greater than 128 µM.
